Key:
[1] = test system: Fusarium culmorum; test: whole plant or invertebrate; assay type: in vivo; settings: in Triticum aestivum, read-out: control of Fusarium culmorum
[2] = test system: Monographella nivalis (Microdochium nivale); test: Monographella nivalis (Microdochium nivale)/Liquid Culture (Foot Rot Cereals); assay type: cell-based; settings: 200 ppm, liquid culture, compared to untreated control, 4-5 days after application, read-out: control of Monographella nivalis
[3] = test system: Botryotinia fuckeliana (Botrytis cinerea); test: Botryotinia fuckeliana (Botrytis cinerea)/Liquid Culture (Gray Mould); assay type: cell-based; settings: 200 ppm, liquid culture, compared to untreated control, 3-4 days after application, read-out: control of Botryotinia fuckeliana
[4] = test system: Magnaporthe grisea (Pyricularia oryzae); test: microbe, parasite or virus in culture; assay type: cell-based; settings: read-out: control of Magnaporthe grisea
[5] = test system: Glomerella lagenarium (Colletotrichum lagenarium); test: Glomerella lagenarium (Colletotrichum lagenarium)/Liquid Culture (Anthracnose); assay type: cell-based; settings: Colletotrichum orbiculare; 200 ppm; liquid culture, compared to untreated control, 3-4 days after application; read-out: control of Glomerella lagenarium
[6] = test system: Fusarium culmorum; test: microbe, parasite or virus in culture; assay type: cell-based; settings: read-out: control of Fusarium culmorum

| Structure (SMILES) | melting point | pest or weed control at 200 ppm [1] | inhibition of growth at 200 ppm [2] | inhibition of growth at 200 ppm [3] | inhibition of growth at 200 ppm [4] | inhibition of growth at 200 ppm [5] | inhibition of growth at 200 ppm [6] |
| --- | --- | --- | --- | --- | --- | --- | --- |
| Cc1nc2c(F)cccc2cc1NC(=O)C(Cc1ccccc1)CC1(C)CC1 (stereo not drawn) | 162 to 163 °C |  |  |  |  |  |  |
| Cc1c(NC(=O)C(Cc2ccccc2)CC2(C)CC2)cnc2c(F)cccc12 (stereo not drawn) | 144 to 146 °C |  |  |  |  |  |  |
| CC1(CC(Cc2ccccc2)C(=O)Nc2cnc3c(F)cccc3c2)CC1 (stereo not drawn) | 135 to 136 °C |  |  |  |  |  |  |
| C[C@@](Cc1ccccc1)(CC(F)(F)F)C(=O)Nc1cnc2c(F)cccc2c1 (single isomer, unassigned) [Compound F-24] |  | ≥ 80% | ≥ 80% | ≥ 80% | ≥ 80% | ≥ 80% | ≥ 80% |
| C#CCC(C)(Cc1ccccc1)C(=O)Nc1cnc2c(F)cccc2c1C (stereo not drawn) [Compound E-3, 2-benzyl-N-(8-fluoro-4-methyl-3-quinolyl)-2-methyl-pent-4-ynamide] |  |  | ≥ 80% | ≥ 80% |  | ≥ 80% | ≥ 80% |
| C=C(Cl)CC(Cc1ccccc1)C(=O)Nc1cc2cccc(F)c2nc1C (stereo not drawn) [Compound E-4, 2-benzyl-4-chloro-N-(8-fluoro-2-methyl-3-quinolyl)pent-4-enamide] | 96 to 99 °C |  |  | ≥ 80% |  | ≥ 80% | ≥ 80% |
| CC(C)CC(C)(Cc1cccc(F)c1)C(=O)Nc1cnc2c(F)cccc2c1 (stereo not drawn) [Compound E-7, 2-[(3-fluorophenyl)methyl]-N-(8-fluoro-3-quinolyl)-2,4-dimethyl-pentanamide] |  |  | ≥ 80% | ≥ 80% | ≥ 80% | ≥ 80% | ≥ 80% |
| C=C(CC(C)(Cc1ccccc1)C(=O)Nc1cnc2c(F)cccc2c1)C(F)(F)F (stereo not drawn) [Compound E-23, 2-benzyl-N-(8-fluoro-3-quinolyl)-2-methyl-4-(trifluoromethyl)pent-4-enamide] |  |  | ≥ 80% | ≥ 80% | ≥ 80% | ≥ 80% | ≥ 80% |
| C=C(C(Cc1ccccc1)C(=O)Nc1cnc2c(F)cccc2c1)C(F)(F)F (stereo not drawn) [Compound E-24, 2-benzyl-N-(8-fluoro-3-quinolyl)-3-(trifluoromethyl)but-3-enamide] |  |  | ≥ 80% | ≥ 80% | ≥ 80% | ≥ 80% | ≥ 80% |
| C/C=C(\C)CC(C)(Cc1ccccc1)C(=O)Nc1cnc2c(F)cccc2c1 (stereo not drawn) [Compound E-32, (E)-2-benzyl-N-(8-fluoro-3-quinolyl)-2,4-dimethyl-hex-4-enamide] |  | ≥ 80% | ≥ 80% | ≥ 80% | ≥ 80% | ≥ 80% | ≥ 80% |
| CC(CCC(F)F)(Cc1ccccc1)C(=O)Nc1cnc2c(F)cccc2c1 (stereo not drawn) [Compound E-34, 2-benzyl-5,5-difluoro-N-(8-fluoro-3-quinolyl)-2-methyl-pentanamide] |  |  |  | ≥ 80% | ≥ 80% | ≥ 80% | ≥ 80% |
| CC(C)CC(Cc1ccccc1)C(=O)Nc1cnc2c(F)cccc2c1 (stereo not drawn) [Compound E-35, 2-benzyl-N-(8-fluoro-3-quinolyl)-4-methyl-pentanamide] |  | ≥ 80% |  | ≥ 80% | ≥ 80% | ≥ 80% | ≥ 80% |
| CCC(C)CC(C)(Cc1ccccc1)C(=O)Nc1cnc2c(F)cccc2c1 (stereo not drawn) [Compound E-36, 2-benzyl-N-(8-fluoro-3-quinolyl)-2,4-dimethyl-hexanamide] |  |  | ≥ 80% | ≥ 80% | ≥ 80% | ≥ 80% | ≥ 80% |
| Cc1nc2c(F)cccc2cc1NC(=O)C(C)(Cc1ccccc1)OC(C)C (stereo not drawn) [Compound E-39, N-(8-fluoro-2-methyl-3-quinolyl)-2-isopropoxy-2-methyl-3-phenyl-propanamide] |  | ≥ 80% | ≥ 80% | ≥ 80% | ≥ 80% | ≥ 80% | ≥ 80% |
| CC(C)OC(C)(Cc1ccccc1)C(=O)Nc1cnc2c(F)cccc2c1 (stereo not drawn) [Compound E-40, N-(8-fluoro-3-quinolyl)-2-isopropoxy-2-methyl-3-phenyl-propanamide] |  | ≥ 80% | ≥ 80% | ≥ 80% | ≥ 80% | ≥ 80% | ≥ 80% |
| COC(C)(Cc1ccccc1)C(=O)Nc1cc2cccc(F)c2nc1C (stereo not drawn) [Compound E-41, N-(8-fluoro-2-methyl-3-quinolyl)-2-methoxy-2-methyl-3-phenyl-propanamide] |  | ≥ 80% | ≥ 80% | ≥ 80% | ≥ 80% | ≥ 80% | ≥ 80% |
| CC(Cc1ccccc1)(CC(F)F)C(=O)Nc1cnc2c(F)cccc2c1 (stereo not drawn) [Compound E-55, 2-benzyl-4,4-difluoro-N-(8-fluoro-3-quinolyl)-2-methyl-butanamide] |  | ≥ 80% | ≥ 80% | ≥ 80% | ≥ 80% | ≥ 80% | ≥ 80% |
| CC(C=C(F)F)(Cc1ccccc1)C(=O)Nc1cnc2c(F)cccc2c1 (stereo not drawn) [Compound E-57, 2-benzyl-4,4-difluoro-N-(8-fluoro-3-quinolyl)-2-methyl-but-3-enamide] |  | ≥ 80% | ≥ 80% | ≥ 80% | ≥ 80% | ≥ 80% | ≥ 80% |
| CON(C(=O)C(C)(Cc1ccccc1)CC(C)C)c1cnc2c(F)cccc2c1 (stereo not drawn) [Compound E-61, 2-benzyl-N-(8-fluoro-3-quinolyl)-N-methoxy-2,4-dimethyl-pentanamide] |  |  | ≥ 80% | ≥ 80% | ≥ 80% | ≥ 80% | ≥ 80% |
| C=C(C)CC(C)(Cc1ccccc1)C(=O)Nc1cnc2ccc(OC)cc2c1 (stereo not drawn) [Compound E-62, 2-benzyl-N-(6-methoxy-3-quinolyl)-2,4-dimethyl-pent-4-enamide] |  |  | ≥ 80% |  |  |  |  |
| C=C(C)CC(C)(Cc1ccccc1)C(=O)Nc1cnc2ccccc2c1 (stereo not drawn) [Compound E-64, 2-benzyl-2,4-dimethyl-N-(3-quinolyl)pent-4-enamide] |  | ≥ 80% | ≥ 80% | ≥ 80% | ≥ 80% | ≥ 80% | ≥ 80% |
| O=C(Nc1cnc2ccccc2c1)C(Cc1ccccc1)CC(F)(F)F (stereo not drawn) [Compound E-79, 2-benzyl-4,4,4-trifluoro-N-(3-quinolyl)butanamide] |  |  |  | ≥ 80% | ≥ 80% | ≥ 80% | ≥ 80% |
| Cc1nc2c(F)cccc2cc1NC(=O)C(C)(Cc1ccccc1)CC(C)C (stereo not drawn) [Compound E-86, 2-benzyl-N-(8-fluoro-2-methyl-3-quinolyl)-2,4-dimethyl-pentanamide] |  | ≥ 80% | ≥ 80% | ≥ 80% |  | ≥ 80% | ≥ 80% |
| C#CCC(Cc1ccccc1)C(=O)Nc1cnc2c(F)cccc2c1C (stereo not drawn) [Compound E-95] |  |  | ≥ 80% | ≥ 80% |  | ≥ 80% | ≥ 80% |
| C[C@@](Cc1ccccc1)(CC(F)(F)F)C(=O)Nc1cnc2c(F)c(F)ccc2c1 [Compound F-16, (2R)-2-benzyl-N-(7,8-difluoro-3-quinolyl)-4,4,4-trifluoro-2-methyl-butanamide] |  |  | ≥ 80% | ≥ 80% | ≥ 80% | ≥ 80% | ≥ 80% |
| Cc1cccc2cc(NC(=O)[C@@](C)(Cc3ccccc3)CC(F)(F)F)cnc12 [Compound F-17, (2S)-2-benzyl-4,4,4-trifluoro-2-methyl-N-(8-methyl-3-quinolyl)butanamide] |  |  | ≥ 80% | ≥ 80% | ≥ 80% | ≥ 80% | ≥ 80% |
| Cc1cccc2cc(NC(=O)[C@](C)(Cc3ccccc3)CC(F)(F)F)cnc12 [Compound F-18, (2R)-2-benzyl-4,4,4-trifluoro-2-methyl-N-(8-methyl-3-quinolyl)butanamide] |  |  | ≥ 80% | ≥ 80% | ≥ 80% | ≥ 80% | ≥ 80% |
| CC(C)C[C@](C)(Cc1ccccc1)C(=O)Nc1cnc2c(F)cccc2c1 [Compound F-19, (2R)-2-benzyl-N-(8-fluoro-3-quinolyl)-2,4-dimethyl-pentanamide] |  | ≥ 80% |  | ≥ 80% |  | ≥ 80% | ≥ 80% |

Source: patent US10952436B2, “Microbiocidal quinoline (thio)carboxamide derivatives” (SYNGENTA PARTICIPATIONS AG, priority 2017, dated 2021)
